Values of other authors in US20240252511A1, “METHODS OF TREATING DEPRESSION AND ANXIETY” (Woolsey Pharmaceuticals, Inc., priority 2021, published 2024).

Conditions: in vivo; 1 hydroxy (M3) metabolite

## O=S(=O)(c1cccc2c(O)nccc12)N1CCCNCC1 [M3, hydroxyfasudil]
  half-life: about 8 hours
